From patent publication US20060165683A1, “Methods and compositions for control of bone formation via modulation of sympathetic tone” (priority 2001, published 2006)

Tested on: human SaOS-2 osteoblastic cells
Assay: cAMP production in human SaOS-2 osteoblastic cells
Type: cell-based
Details: SaOS-2, 100 μM IBMX, 5 min treatment
Experimental: Primary osteoblast cultures were established as previously described (see, e.g., Ducy et al., 2000, Cell 100: 197-207) and maintained in αMEM/0.1 mg/ml ascorbic acid supplemented with 10% FBS. SaOS-2 were grown in MEM/10% FBS. For cAMP assay confluent cultures were incubated with serum free medium containing 100 μM IBMX (3-isobutyl-1-methylxanthine, Sigma) for 8 minutes before PBS, PTH(1-34) (Bachem), isoproterenol, norepinephrine, phenylephrine (Sigma) or propranolol were added for 5 min. Intracellular cAMP concentration was measured by immunoassay (R&D Systems). For gene expression analyses, primary osteoblasts were treated for 72 hours with appropriate drugs in 0.1% FBS. Hormone serum levels were quantified using immunoassays kits from Peninsula Laboratories (Insulin) or Alpco Diagnostics (leptin). Deoxypyridinoline cross-links and Creatinine were measured in morning urines using the Quidel kits. a1(I) leptin bioactivity was verified by cotransfection of 293 cells expressing ObRb with a STAT3-responsive-luc reporter construct, pSVβgal plasmid and a1(I) leptin expression vector or mock. Twenty-four hours later luciferase and β-galactosidase activities were measured. Data represents ratios of luciferase/β-galactosidase activities, and values are mean of 6 independent transfection experiments.
For a sympathetic regulation of bone formation to exist several requirements have to be fulfilled. The first one is that functional adrenergic receptors are present on osteoblasts. […] No other adrenergic receptor subtype could be detected. […] Thus, to assess the biologic relevance of the presence of β2-adrenergic receptors on osteoblasts, these cells were treated with isoproterenol, a β-adrenergic agonist, alone or in the presence of propranolol, a β-adrenergic receptor antagonist; with norepinephrine, the natural ligand of β-adrenergic receptors; with phenylephrine, an α-adrenergic agonist or with vehicle and measured cAMP production. […]

Question: With CC(C)NCC(O)c1ccc(O)c(O)c1 (stereo not shown) [isoproterenol] as the molecule, how does the cAMP production read?
Answer: induced
